Measured values taken from patent US8759363B2, “Quinazoline-based T cell proliferation inhibitors” (Yissum Research Development Company of the Hebrew …, priority 2010, dated 2014).

Key:
PBMC = PBMC proliferation, BrdU incorporation; format: cell-based, human; details: for IC50: Homo sapiens, ConA-stimulated PBMC, BrdU uptake, nM ± SD, read-out: IC50 PBMC proliferation inhibition; for fold increase in the IC50 of PBMC proliferation compared with compound 2: relative to compound 2
Experimental: Blood samples were taken from healthy donors and loaded on a Ficoll density gradient to purify the PBMC population. T cells were purified by human anti-CD3 using an autoMACS instrument (Miltenyi Biotec, Bergisch-Gladbach, Germany), according to the manufacturer's instructions. The identity of T cells was confirmed by flow cytometry, as they stained positive for CD3. Cells were stimulated with ConA (10 μg/ml), ODN2006 (0.5 μg/ml; Enzo Life Sciences), or LPS (50 μg/ml; Sigma-Aldrich, Steinheim, Germany), for 72 h in the presence of the inhibitor, and their proliferation was measured in the BrdU incorporation assay as will be later described.
(§1) Cells were depleted of fetal calf serum (FCS) for 12 hours. They were then stimulated to proliferate by addition of ConA (10 μg/ml) for PBMC from healthy individuals and for Jurkat cells, FCS (10%) for HEK293 and A375 cells, PDGF (30 ng/ml) for NIH 3T3 cells, and EGF (30 ng/ml) for MDA-MB-231, Cells (1×10^5) were cultured in 96-well plates for 3 days in the presence or absence of inhibitors at the concentrations specified in the text. Each condition was tested in duplicate wells.
(§2) Proliferation was assessed by BrdU incorporation using a colorimetric ELISA kit (Roche, Germany). Subsequent to labeling with 10 μM BrdU, DNA was denatured and the cells were incubated with anti-BrdU-POD, prior to the addition of colorimetric substrate (TMB). The reaction product was quantified by measuring absorbance at 450 nm in an ELISA plate reader (ELx800 BIO-TEK Instruments Inc.).
(§3) Since we were not prejudiced towards any specific protein kinase, we used a biological assay for T cell proliferation. We tested our libraries for inhibition of proliferation of PBMC and Jurkat cells (Table 3). Cell proliferation was measured by BrdU uptake. […] PBMC cells were stimulated by a non-specific T cell mitogen, Concanavalin A (ConA). All of the compounds that were tested inhibited proliferation at micromolar or sub-micromolar concentrations.

Jurkat cells = experiment: Jurkat cell proliferation, BrdU incorporation; format: cell-based, human; details: for IC50: Homo sapiens, Jurkat, BrdU uptake, nM ± SD, read-out: IC50 Jurkat cells proliferation inhibition; for fold increase in the IC50 of Jurkat cell proliferation compared with compound 2: relative to compound 2
Experimental: as §1, §2, §3

Structure (SMILES) | IC50 (PBMC) | fold increase in the IC50 of PBMC proliferation compared with compound 2 (PBMC) | IC50 (Jurkat cells) | fold increase in the IC50 of Jurkat cell proliferation compared with compound 2 (Jurkat cells) | melting point
COc1cc(-c2nc(Nc3ccccc3)c3ccccc3n2)cc(OC)c1OC [Compound 1, N-phenyl-2-(3,4,5-trimethoxyphenyl)quinazolin-4-amine] | 280 ± 0.04 nM | 3 fold | 380 ± 0.18 nM | 10 fold | > 250 °C
COc1cc(-c2nc(Nc3ccc(C)cc3C)c3ccccc3n2)cc(OC)c1OC [Compound 3, N-(2,4-dimethylphenyl)-2-(3,4,5-trimethoxyphenyl)quinazolin-4-amine] | 750 ± 0.05 nM | 10 fold | 2600 ± 3.39 nM | 10 fold | > 250 °C
COc1cc(-c2nc(Nc3ccc(O)cc3)c3ccccc3n2)cc(OC)c1OC [Compound 4, 4-(2-(3,4,5-trimethoxyphenyl)quinazolin-4-ylamino)phenol] | 300 ± 0.14 nM | – | 230 ± 0.04 nM | – | > 250 °C
COc1ccc(Nc2nc(-c3cc(OC)c(OC)c(OC)c3)nc3ccccc23)cc1 [Compound 5, N-(4-methoxyphenyl)-2-(3,4,5-trimethoxyphenyl)quinazolin-4-amine] | 500 ± 0.14 nM | – | 1100 ± 0.14 nM | – | > 250 °C
CCCCCCCCOc1ccc(Nc2nc(-c3cc(OC)c(OC)c(OC)c3)nc3ccccc23)cc1 [Compound 6, N-(4-(octyloxy)phenyl)-2-(3,4,5-trimethoxyphenyl)quinazolin-4-amine] | 2400 ± 2.26 nM | – | 850 ± 0.07 nM | – | –
COc1cc(-c2nc(Nc3ccc(OC(F)(F)F)cc3)c3ccccc3n2)cc(OC)c1OC [Compound 7, N-(4-(trifluoromethoxy)phenyl)-2-(3,4,5-trimethoxyphenyl) quinazolin-4-amine] | 400 nM | 5 fold | 180 ± 0.11 nM | 6 fold | > 250 °C
COc1cc(-c2nc(Nc3ccc(Cl)cc3)c3ccccc3n2)cc(OC)c1OC [Compound 8, N-(4-chlorophenyl)-2-(3,4,5-trimethoxyphenyl)quinazolin-4-amine] | 300 ± 0.05 nM | – | 530 ± 0.32 nM | – | > 250 °C
COc1cc(-c2nc(Nc3ccccc3CO)c3ccccc3n2)cc(OC)c1OC [Compound 9, (2-(2-(3,4,5-trimethoxyphenyl)quinazolin-4-ylamino)phenyl)methanol] | 850 ± 0.07 nM | – | 580 ± 0.18 nM | – | > 250 °C
COc1cc(-c2nc(NCc3ccccc3)c3ccccc3n2)cc(OC)c1OC [Compound 10, N-benzyl-2-(3,4,5-trimethoxyphenyl)quinazolin-4-amine] | 3250 ± 2.47 nM | – | 600 ± 0.14 nM | – | > 250 °C
COc1cc(-c2nc(NCc3ccc(N)cc3)c3ccccc3n2)cc(OC)c1OC [Compound 11, N-(4-aminobenzyl)-2-(3,4,5-trimethoxyphenyl)quinazolin-4-amine] | 380 ± 0.04 nM | – | 480 ± 0.18 nM | – | > 250 °C
COc1cc(-c2nc(NCc3ccc(F)c(F)c3)c3ccccc3n2)cc(OC)c1OC [Compound 12, N-(3,4-difluorobenzyl)-2-(3,4,5-trimethoxyphenyl)quinazolin-4-amine] | 200 nM | – | 730 ± 0.39 nM | – | > 250 °C
COc1cc(-c2nc(NCc3ccc(Cl)c(Cl)c3)c3ccccc3n2)cc(OC)c1OC [Compound 13, N-(3,4-dichlorobenzyl)-2-(3,4,5-trimethoxyphenyl)quinazolin-4-amine] | 300 ± 0.14 nM | – | 730 ± 0.39 nM | – | –
COc1ccc(CNc2nc(-c3cc(OC)c(OC)c(OC)c3)nc3ccccc23)cc1 [Compound 14, N-(4-methoxybenzyl)-2-(3,4,5-trimethoxyphenyl)quinazolin-4-amine] | 500 ± 0.14 nM | – | 1100 ± 0.14 nM | – | –
COc1cc(-c2nc(Nc3ccc4cn[nH]c4c3)c3ccccc3n2)cc(OC)c1OC [Compound 15, N-(1H-indazol-6-yl)-2-(3,4,5-trimethoxyphenyl) quinazolin-4-amine] | 450 ± 0.07 nM | – | 600 ± 0.14 nM | – | > 250 °C
COc1cc(-c2nc(Nc3ccc4[nH]ncc4c3)c3ccccc3n2)cc(OC)c1OC [Compound 16, N-(1H-indazol-5-yl)-2-(3,4,5-trimethoxyphenyl)quinazolin-4-amine] | 600 ± 0.28 nM | – | 700 ± 0.35 nM | – | > 250 °C
COc1cc(-c2nc(NCCc3c[nH]c4ccccc34)c3ccccc3n2)cc(OC)c1OC [Compound 17, N-(2-(1H-indol-3-yl)ethyl)-2-(3,4,5-trimethoxyphenyl)quinazolin-4-amine] | 750 ± 0.21 nM | – | 700 ± 0.35 nM | – | > 250 °C
COc1cc(-c2nc(Nc3ccc4c(c3)OCO4)c3ccccc3n2)cc(OC)c1OC [Compound 18, N-(benzo[d][1,3]dioxol-5-yl)-2-(3,4,5-trimethoxyphenyl) quinazolin-4-amine] | 380 ± 0.04 nM | – | 600 nM | – | > 250 °C
COc1cc(-c2nc(Nc3ccc4nc[nH]c4c3)c3ccccc3n2)cc(OC)c1OC [Compound 19, N-(3H-benzoimidazol-5-yl)-2-(3,4,5-trimethoxyphenyl)quinazolin-4-amine] | 430 ± 0.11 nM | – | 1500 ± 0.71 nM | – | > 250 °C
Oc1cc(-c2nc(Nc3ccccc3)c3ccccc3n2)cc(O)c1O [Compound 20, 5-(4-(phenylamino)quinazolin-2-yl)benzene-1,2,3-triol] | 650 ± 0.49 nM | – | 5500 ± 3.5 nM | – | > 250 °C
Cc1ccc(Nc2nc(-c3cc(O)c(O)c(O)c3)nc3ccccc23)c(C)c1 [Compound 22, 5-(4-(2,4-dimethylphenylamino)quinazolin-2-yl)benzene-1,2,3-triol] | 730 ± 0.04 nM | – | 3700 ± 4.67 nM | – | > 250 °C
Oc1ccc(Nc2nc(-c3cc(O)c(O)c(O)c3)nc3ccccc23)cc1 [Compound 23, 5-(4-(4-hydroxyphenylamino)quinazolin-2-yl)benzene-1,2,3-triol] | 970 ± 0.84 nM | – | 1120 ± 0.28 nM | – | –
COc1ccc(Nc2nc(-c3cc(O)c(O)c(O)c3)nc3ccccc23)cc1 [Compound 24, 5-(4-(4-methoxyphenylamino)quinazolin-2-yl)benzene-1,2,3-triol] | 500 ± 0.14 nM | – | 550 ± 0.21 nM | – | > 250 °C
CCCCCCCCOc1ccc(Nc2nc(-c3cc(O)c(O)c(O)c3)nc3ccccc23)cc1 [Compound 25, 5-(4-(4-(octyloxy)phenylamino)quinazolin-2-yl)benzene-1,2,3-triol] | 4530 ± 0.31 nM | – | 4250 ± 1.3 nM | – | > 250 °C
Oc1cc(-c2nc(Nc3ccc(OC(F)(F)F)cc3)c3ccccc3n2)cc(O)c1O [Compound 26, 5-(4-(4-(trifluoromethoxy)phenylamino)quinazolin-2-yl)benzene-1,2,3-triol] | 2780 ± 0.26 nM | – | 3240 ± 0.31 nM | – | > 250 °C
Oc1cc(-c2nc(Nc3ccc(Cl)cc3)c3ccccc3n2)cc(O)c1O [Compound 27, 5-(4-(4-chlorophenylamino)quinazolin-2-yl)benzene-1,2,3-triol] | 550 ± 0.21 nM | – | 4250 ± 5.3 nM | – | > 250 °C
OCc1ccccc1Nc1nc(-c2cc(O)c(O)c(O)c2)nc2ccccc12 [Compound 28, 5-(4-(2-(hydroxymethyl)phenylamino)quinazolin-2-yl)benzene-1,2,3-triol] | 900 ± 0.14 nM | – | 650 ± 0.21 nM | – | > 250 °C
Oc1cc(-c2nc(NCc3ccccc3)c3ccccc3n2)cc(O)c1O [Compound 29, 5-(4-(benzylamino)quinazolin-2-yl)benzene-1,2,3-triol] | 7000 ± 3.5 nM | – | 950 ± 0.07 nM | – | > 250 °C
Nc1ccc(CNc2nc(-c3cc(O)c(O)c(O)c3)nc3ccccc23)cc1 [Compound 30, 5-(4-(4-aminobenzylamino)quinazolin-2-yl)benzene-1,2,3-triol] | 570 ± 0.24 nM | – | 670 ± 0.22 nM | – | > 250 °C
Oc1cc(-c2nc(NCc3ccc(F)c(F)c3)c3ccccc3n2)cc(O)c1O [Compound 31, 5-(4-(3,4-difluorobenzylamino)quinazolin-2-yl)benzene-1,2,3-triol] | 280 ± 0.04 nM | – | 600 ± 0.21 nM | – | > 250 °C
Oc1cc(-c2nc(Nc3ccc4cn[nH]c4c3)c3ccccc3n2)cc(O)c1O [Compound 34, 5-(4-(1H-indazol-6-ylamino)quinazolin-2-yl)benzene-1,2,3-triol] | 500 ± 0.14 nM | – | 690 ± 0.3 nM | – | –
